These are literature values, as cited in publication PMC4962924 (Chemistry (Weinheim an der Bergstrasse, Germany), 2016).

This series concerns Hsp90. Conditions: natural product C-terminal inhibitors; ref [25],[26].

As a reminder, the IC50 is the concentration that inhibits the measured activity by half. `CO[C@H]1[C@H](OC(=O)c2ccc(C)[nH]2)[C@H](O)[C@@H](Oc2ccc3c(O)c(NC(=O)c4c[nH]c(C(=O)Nc5c(O)c6ccc(O[C@H]7OC(C)(C)[C@@H](OC)[C@H](OC(=O)c8ccc(C)[nH]8)[C@@H]7O)c(C)c6oc5=O)c4C)c(=O)oc3c2C)OC1(C)C` [coumermycin A1]: the half-inhibitory concentration (IC50) is 70 µM.

Take `CO[C@@H]1[C@@H](OC(N)=O)[C@@H](O)[C@H](Oc2ccc3c(O)c(NC(=O)c4ccc(O)c(CC=C(C)C)c4)c(=O)oc3c2C)OC1(C)C` [novobiocin]: the 50% inhibitory concentration (IC50) is […].
